Target: T1, CXCR4 (Homo sapiens, UniProt P61073)
T1 construct: all endogenously expressing CXCR4; endogenous in cells; host or cells: CEM-Nkr, CCRF-CEM, Jurkat, Molt-4; IL-2 stimulated human lymphocytes
Experiment: chemotaxis assay or 125I SDF-1α binding assay for CXCR4
Details: first or only activity listed, read-out: CXCR4 activity (IC50 class)
Protocol: CEM-Nkr, CCRF-CEM (ATCC #CCL-119), Jurkat (ATCC #TIB-152), Molt-4 (ATCC# CRL-1582), cell lines, all endogenously expressing CXCR4, were used in compound screening and subsequent assays. These cell lines were cultured as a suspension in RPMI-1640 medium supplemented with 2 mM L-glutamine, 1.5 g/L sodium bicarbonate, 4.5 g/L glucose, 10 mM HEPES, 1 mM sodium pyruvate, and 10% FBS. Cells were grown under 5% CO2/95% air, 100% humidity at 37° C. and subcultured twice weekly at 1:6 (cells were cultured at a density range of 1×10^5 to 2×10^6 cells/mL) and harvested at 1×10^6 cells/mL. • b) Isolated Human IL-2 Stimulated Lymphocytes
Cells were centrifuged and resuspended in assay buffer (20 mM HEPES pH 7.1, 140 mM NaCl, 1 mM CaCl2, 5 mM MgCl2, and with 0.2% bovine serum albumin) to a concentration of 4×10^6 cells/mL for cell lines. Binding assays were set up as follows. […] Then 0.1 mL of ^125I labeled SDF-1α (obtained from Perkin Elmer Life Sciences, Boston, Mass.) diluted in assay buffer to a final concentration of ˜50 pM, yielding ˜30,000 cpm per well, was added, the plates sealed and incubated for approximately 3 hours at 4° C. on a shaker platform. Reactions were aspirated onto GF/B glass filters pre-soaked in 0.3% polyethyleneimine (PEI) solution, on a vacuum cell harvester (Packard Instruments; Meriden, Conn.). Scintillation fluid (40 μl; Microscint 20, Packard Instruments) was added to each well, the plates were sealed and radioactivity measured in a Topcount scintillation counter (Packard Instruments). Control wells containing either diluent only (for total counts) or excess SDF1 a (1 μg/mL, for non-specific binding) were used to calculate the percent of total inhibition for compound. The computer program Prism from GraphPad, Inc. (San Diego, Calif.) was used to calculate IC50 values. IC50 values are those concentrations required to reduce the binding of radiolabeled SDF-1α to the receptor by 50%. (For further descriptions of ligand binding and other functional assays, see Dairaghi, et al., J. Biol. Chem. 274:21569-21574 (1999), Penfold, et al., Proc. Natl. Acad. Sci. USA. 96:9839-9844 (1999), and Dairaghi, et al., J. Biol. Chem. 272:28206-28209 (1997)).
Chemotaxis assays were performed using 5 μm pore polycarbonate, polyvinylpyrrolidone-coated filters in 96-well chemotaxis chambers (Neuroprobe; Gaithersburg, Md.) using chemotaxis buffer (Hank's balanced salt solution (HBSS) and 1% FBS). CXCR4 ligand (i.e., SDF1a, R&D Systems; Minneapolis, Minn.) are use to evaluate compound mediated inhibition of CXCR4 mediated migration. Other chemokines (i.e., TECK; R&D Systems; Minneapolis, Minn.) are used as specificity controls. The lower chamber was loaded with 29 μl of chemokine (i.e., 0.1 nM SDF1a); the top chamber contained 50,000 Jurkat cells or IL-2 lymphocytes in 20 μl. The chambers were incubated 2 hours at 37° C., and the number of cells in the lower chamber quantified either by direct cell counts in five high powered fields per well or by the CyQuant assay (Molecular Probes), a fluorescent dye method that measures nucleic acid content and microscopic observation.
To evaluate small organic molecules that prevent the CXCR4 from binding ligand, an assay was employed that detected radioactive ligand (i.e, SDF-1) binding to cells expressing CXCR4 on the cell surface (for example, CEM-Nkr cells). For compounds that inhibited binding, whether competitive or not, fewer radioactive counts are observed when compared to uninhibited controls.
Equal numbers of cells were added to each well in the plate. The cells were then incubated with radiolabeled […]. Unbound ligand was removed by washing the cells, and bound ligand was determined by quantifying radioactive counts. Cells that were incubated without any organic compound gave total counts; non-specific binding was determined by incubating the cells with unlabeled ligand and labeled ligand. Percent inhibition was determined by the equation: […]

T1 sequence (P61073 whole entry): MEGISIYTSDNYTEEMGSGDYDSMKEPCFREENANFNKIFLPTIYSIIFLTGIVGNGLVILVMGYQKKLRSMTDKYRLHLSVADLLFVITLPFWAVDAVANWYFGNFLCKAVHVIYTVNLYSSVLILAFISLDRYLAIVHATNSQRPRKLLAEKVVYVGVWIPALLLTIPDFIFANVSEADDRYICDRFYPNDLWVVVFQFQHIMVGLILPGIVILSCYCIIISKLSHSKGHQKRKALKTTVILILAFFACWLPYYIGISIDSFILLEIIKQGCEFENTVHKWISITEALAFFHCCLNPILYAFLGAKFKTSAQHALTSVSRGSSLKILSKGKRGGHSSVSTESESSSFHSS

Compound	IC50 [µM]
CN(C)c1ccc(-c2ccc3ccn(CC(=O)NCCN(C)C4CCCCC4)c3c2)cc1 [No 62]	< 1
CN(CCNC(=O)Cn1ccc2ccc(-c3ccncc3)cc21)C1CCCCC1 [No 40]	< 1
Cc1ccc(-c2ccc3ccn(CC(=O)NCCN4CCCCC4C)c3c2)cc1 (centres unmarked) [No 53]	< 1
CN(CCNC(=O)Cn1cc2ccccc2n1)C1CCCCC1 [No 10]	1 to 10
Cc1ccc(-c2ccc3ccn(CC(=O)NCCN4CC(C)CC(C)C4)c3c2)cc1 (centres unmarked) [No 64]	< 1
CN(CCNC(=O)Cn1ncc2ccccc21)C1CCCCC1 [No 2]	> 10
Cc1ccc(-c2ccc3c(ccn3CC(=O)NCCN(C)C3CCCCC3)c2)cc1 [No 41]	< 1
CN(CCNC(=O)Cn1cnc2ncccc21)C1CCCCC1 [No 7]	1 to 10
CCN(CCNC(=O)Cn1ccc2ccc(-c3ccc(C)cc3)cc21)C1CCCCC1 [No 55]	< 1
CCc1ccc(-c2ccc3ccn(CC(=O)NCCN(C)C4CCCCC4)c3c2)cc1 [No 38]	< 1
Cc1cccc(-c2ccc3ccn(CC(=O)NCCN(C)C4CCCCC4)c3c2)c1 [No 39]	< 1
Cc1ccc(-c2ccc3c(C4=CCCC=C4)nn(CC(=O)NCCN(C)C4CCCCC4)c3c2)cc1 [No 16]	1 to 10
Cc1ccc(-c2ccc3cnn(CC(=O)NCCN(C)C4CCCCC4)c3c2)cc1 [No 49]	< 1
Cc1ccc(-c2ccc3ccn(CC(=O)NCCNC4CCOC4)c3c2)cc1 (centres unmarked) [No 13]	1 to 10
COc1cc(-c2ccc(C)cc2)cc2c1ccn2CC(=O)NCCN(C)C1CCCCC1 [No 17]	< 1
Cc1ccc(-c2ccc3ccn(CC(=O)NCCN(C)C4CCCCC4)c3c2)cc1F [No 48]	< 1
CN(CCNC(=O)Cn1ncc2c1CCCC2)C1CCCCC1 [No 6]	> 10
CN(CCCNC(=O)Cn1ccc2cccc(-c3ccc(F)cc3)c21)C1CCCCC1 [No 1]	< 1
CN(CCNC(=O)Cn1ccc2cc(-c3ccc(F)cc3)ccc21)C1CCCCC1 [No 42]	< 1
CN(CCNC(=O)Cn1nc(Cl)c2ccccc21)C1CCCCC1 [No 21]	1 to 10
O=C(Cn1ccc2cccc(-c3ccc(F)cc3)c21)NCCN1CCCC2CCCCC21 (centres unmarked) [No 4]	< 1
Cc1ccc2c(c1)ncn2CC(=O)NCCN(C)C1CCCCC1 [No 9]	< 1
CN(CCNC(=O)Cn1ccc2ccc(-c3ccc(Cl)cc3)cc21)C1CCCCC1 [No 29]	< 1
Cc1ccc(-c2ccc3ccn(CC(=O)NC(C)CN4CCCC4)c3c2)cc1 (centres unmarked) [No 59]	< 1
CN(CCNC(=O)Cn1cnc2c(F)c(F)ccc21)C1CCCCC1 [No 18]	< 1
Cc1ccc(-c2ccc3ccn(CC(=O)NCCN4CCCCCC4)c3c2)cc1 [No 54]	< 1
Cc1ccc(-c2ccc3ccn(CC(=O)NCCN(C)C4CCCCC4)c3c2)c(F)c1 [No 47]	< 1

Compound	IC50 [µM]
Cc1ccc(-c2ccc3ccn(CC(=O)NCCN4CCC[C@@H]5CCCC[C@H]54)c3c2)cc1 [No 44]	< 1
Cc1ccc(-c2ccc3ccn(CC(=O)NCCN4CCCC4)c3c2)cc1 [No 52]	< 1
CN(CCNC(=O)Cn1ccc2ccc(-c3cc4ccccc4o3)cc21)C1CCCCC1 [No 37]	< 1
Cc1ccc(-c2cccc3c2ccn3CC(=O)NCCN(C)C2CCCCC2)cc1 [No 43]	< 1
CN(CCNC(=O)Cn1ccc2ccc(-c3ccc(C(F)(F)F)cc3)cc21)C1CCCCC1 [No 25]	< 1
CN(CCNC(=O)Cn1ccc2ccc(-c3ccc(C#N)cc3)cc21)C1CCCCC1 [No 57]	< 1
Cc1ccc(-c2ccc3ccn(CC(=O)NCCN4CCCC(C)(C)C4)c3c2)cc1 [No 63]	< 1
CN(CCNC(=O)Cn1ccc2ccc(-c3ccc(C(N)=O)cc3)cc21)C1CCCCC1 [No 50]	< 1
Cc1ccc(-c2ccc3ccn(CC(=O)NCCN4CCC(C)CC4)c3c2)cc1 [No 56]	< 1
Cc1ccc(-c2ccc3oc(=O)n(CC(=O)NCCN(C)C4CCCCC4)c3c2)cc1 [No 12]	< 1
CN(CCNC(=O)Cc1c[nH]c2ccccc12)C1CCCCC1 [No 20]	1 to 10
Cc1ccc(-c2ccc3ccn(CC(=O)NCCN(C)C4CCCC4)c3c2)cc1 [No 51]	< 1
COC(=O)c1cc2ccc(-c3ccc(C)cc3)cc2n1CC(=O)NCCN(C)C1CCCCC1 [No 58]	< 1
CN(CCNC(=O)Cn1ccc2cccc([N+](=O)[O-])c21)C1CCCCC1 [No 8]	< 1
Cc1ccc(-c2ccc3ccn(CC(=O)NC(C)(C)CN4CCCC4)c3c2)cc1 [No 15]	1 to 10
Cc1ccc(-c2ccc3cc(C(=O)O)n(CC(=O)NCCN(C)C4CCCCC4)c3c2)cc1 [No 14]	< 1
CN(CCNC(=O)Cn1ccc2ccc(-c3ccccc3)cc21)C1CCCCC1 [No 22]	< 1
Cc1ccc(-c2ccc3ccn(CC(=O)NCC(C)N4CCCC4)c3c2)cc1 (centres unmarked) [No 61]	< 1
CN(CCNC(=O)Cn1cnc2c1CCOC2)C1CCCCC1 [No 19]	> 10
Cc1ccccc1-c1ccc2ccn(CC(=O)NCCN(C)C3CCCCC3)c2c1 [No 30]	1 to 10
Cc1ccc(-c2ccc3ccn(CC(=O)NCCN(C)C4CCCCC4)c3c2)cc1C [No 46]	< 1
CN(CCNC(=O)Cn1ccc2ccc(-c3cnc4ccccc4c3)cc21)C1CCCCC1 [No 36]	< 1
Cc1ccc(-c2ccc3ccn(CC(=O)NCCN4CCCCC4)c3c2)cc1 [No 11]	< 1
C=Cc1ccc(-c2ccc3ccn(CC(=O)NCCN(C)C4CCCCC4)c3c2)cc1 [No 45]	< 1
Cc1ccc(-c2ccc3ncn(CC(=O)NCCN(C)C4CCCCC4)c3c2)cc1 [No 60]	< 1
CC(C)c1ccc(-c2ccc3ccn(CC(=O)NCCN4CCCC5CCCCC54)c3c2)cc1 (centres unmarked) [No 3]	< 1
